The source of these data is US20230150986A1, “ANTAGONISTS OF THE MUSCARINIC ACETYLCHOLINE RECEPTOR M4” (Vanderbilt University, priority 2019, published 2023).

This assay concerns the target T1, Human M4 (Homo sapiens, UniProt P08173).
T1 construct: Human or rat M4 cDNA, along with the chimeric G protein Gq,5, were transfected into Chinese hamster ovary (CHO-K1) cells; expressed in transfected cells; host or cells: CHO-K1 (M4/Gqi5/CHO)
T1 sequence (P08173 1-479): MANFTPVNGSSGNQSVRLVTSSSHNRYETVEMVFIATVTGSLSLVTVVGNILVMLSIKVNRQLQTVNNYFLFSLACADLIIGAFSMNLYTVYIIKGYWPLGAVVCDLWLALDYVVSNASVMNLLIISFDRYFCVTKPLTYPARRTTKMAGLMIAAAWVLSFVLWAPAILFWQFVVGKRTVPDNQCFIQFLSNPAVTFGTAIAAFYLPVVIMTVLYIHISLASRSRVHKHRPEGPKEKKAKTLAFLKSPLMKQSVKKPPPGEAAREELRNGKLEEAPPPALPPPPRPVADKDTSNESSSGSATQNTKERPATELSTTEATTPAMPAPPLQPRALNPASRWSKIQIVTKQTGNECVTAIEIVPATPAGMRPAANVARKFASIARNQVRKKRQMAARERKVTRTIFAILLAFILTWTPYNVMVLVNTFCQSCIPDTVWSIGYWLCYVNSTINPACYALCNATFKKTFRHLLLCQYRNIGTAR
The assay can be described thus: mAChR M4 cell-based functional assay (calcium flux, decrease of EC80 acetylcholine response). The settings on record: for Human M4 Emin: % ACh maximum at 30 μM; for IC50: CHO-K1 cells with human M4 and Gqi5, EC80 acetylcholine. The gist of the method:
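CHO-K1 cells stably co-expressing M4 with chimeric Gqi5, loaded with Fluo-4 AM for 50 min at 37 °C; compounds added as 10-point 1:3 curves, then acetylcholine at EC20 (143 s) and EC80 (268 s). Calcium read by FDSS fluorescence ratio; IC50 from four-parameter fit of decrease in EC80 acetylcholine response.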
(A change in cytosolic calcium serves as a functional read-out for many receptors and channels.)

One may read the IC50 as the concentration at which inhibition is half-maximal. In the case of `CC(c1ccccn1)N1C[C@H]2C[C@H](Nc3ccc(-c4cc(F)cc(F)c4F)nn3)C[C@H]2C1` (stereo partly drawn) [Compound 13, (3aR,5s,6aS)-2-(1-(pyridin-2-yl)ethyl)-N-(6-(2,3,5-trifluorophenyl)pyridazin-3-yl)octahydrocyclopenta[c]pyrrol-5-amine], the “Human M4 Emin” value is on record as 3% and the IC50 was found to be 74.6 nM.

Regarding `[2H]C([2H])([C@H]1COCCO1)N1C[C@H]2C[C@H](Nc3ccc(-c4cc(F)cc(F)c4F)nn3)C[C@H]2C1` [Compound 39, (3aR,5s,6aS)-2-(((S)-1,4-dioxan-2-yl)methyl-d2)-N-(6-(2,3,5-trifluorophenyl)pyridazin-3-yl)octahydrocyclopenta[c]pyrrol-5-amine], the “Human M4 Emin” value is listed as 3% and the concentration for half-maximal inhibition (IC50) amounted to 0.56 nM.

Regarding `Fc1cc(F)c(F)c(-c2ccc(N[C@H]3C[C@@H]4CN(C5CCC6(CCOCC6)CC5)C[C@@H]4C3)nn2)c1` [Compound 5, (3aR,5s,6aS)-2-(3-oxaspiro[5.5]undecan-9-yl)-N-(6-(2,3,5-trifluorophenyl)pyridazin-3-yl)octahydrocyclopenta[c]pyrrol-5-amine], the “Human M4 Emin” value is given as 3% and the IC50 was 13.5 nM.

Consider `[2H]C([2H])(COCC)N1C[C@H]2C[C@H](Nc3ccc(-c4cc(F)cc(F)c4F)nn3)C[C@H]2C1` [Compound 79, (3aR,5s,6aS)-2-(2-ethoxyethyl-1,1-d2)-N-(6-(2,3,5-trifluorophenyl)pyridazin-3-yl)octahydrocyclopenta[c]pyrrol-5-amine], for which the “Human M4 Emin” value is given as 5% and the IC50 worked out at 120 nM.

For the molecule `[2H]C([2H])([C@@H]1CCCCO1)N1C[C@H]2C[C@H](Nc3ccc(-c4cc(F)cc(F)c4F)nn3)C[C@H]2C1` [Compound 43, (3aR,5s,6aS)-2-(((S)-tetrahydro-2H-pyran-2-yl)methyl-d2)-N-(6-(2,3,5-trifluorophenyl)pyridazin-3-yl)octahydrocyclopenta[c]pyrrol-5-amine], the “Human M4 Emin” value stood at 4% and the IC50 came out at 0.95 nM.

As for `[2H]C1([2H])[C@H](Nc2ccc(-c3cc(F)cc(F)c3F)nn2)C([2H])([2H])[C@H]2CN(CC3CCOCC3)C[C@H]21` [Compound 70], the “Human M4 Emin” value turned out to be 3% and the IC50 stood at 4.4 nM.

For `[2H]C([2H])(c1c(F)cccc1F)N1C[C@H]2C[C@H](Nc3ccc(-c4cc(F)cc(F)c4F)nn3)C[C@H]2C1` [Compound 92, (3aR,5s,6aS)-2-((2,6-difluorophenyl)methyl-d2)-N-(6-(2,3,5-trifluorophenyl)pyridazin-3-yl)octahydrocyclopenta[c]pyrrol-5-amine], the “Human M4 Emin” value was found to be 7% and the IC50 is 750 nM.

Regarding `Fc1cc(F)c(F)c(-c2ccc(N[C@@H]3C[C@H]4CN(CC5CCOCC5)C[C@H]4[C@@H]3F)nn2)c1` (racemic) [Compound 86, (3aR,4R,5S,6aS)-4-fluoro-2-((tetrahydro-2H-pyran-4-yl)methyl)-N-(6-(2,3,5-trifluorophenyl)pyridazin-3-yl)octahydrocyclopenta[c]pyrrol-5-amine and (3aS,4S,5R,6aR)-4-fluoro-2-((tetrahydro-2H-pyran-4-yl)methyl)-N-(6-(2,3,5-trifluorophenyl)pyridazin-3-yl)octahydrocyclopenta[c]pyrrol-5-amine], the “Human M4 Emin” value stood at 2% and the concentration for half-maximal inhibition (IC50) came out at 3.1 nM.

Consider `Fc1cc(F)c(F)c(-c2ccc(N[C@H]3C[C@@H]4CN(C5CC6(COC6)C5)C[C@@H]4C3)nn2)c1` [Compound 35, (3aR,5s,6aS)-2-(2-oxaspiro[3.3]heptan-6-yl)-N-(6-(2,3,5-trifluorophenyl)pyridazin-3-yl)octahydrocyclopenta[c]pyrrol-5-amine], for which the “Human M4 Emin” value is reported as 3% and the half-maximal inhibitory concentration (IC50) came out at 798 nM.

As for `Fc1cc(F)c(F)c(-c2ccc(N[C@H]3C[C@@H]4CN(CC5CC6(COC6)C5)C[C@@H]4C3)nn2)c1` [Compound 68, (3aR,5s,6aS)-2-((2-oxaspiro[3.3]heptan-6-yl)methyl)-N-(6-(2,3,5-trifluorophenyl)pyridazin-3-yl)octahydrocyclopenta[c]pyrrol-5-amine], the “Human M4 Emin” value was 3% and the half-inhibitory concentration (IC50) came to 0.36 nM.

As for `CC(N1C[C@H]2C[C@H](Nc3ccc(-c4cc(F)cc(F)c4F)nn3)C[C@H]2C1)C1(C)CCOCC1` (stereo partly drawn) [Compound 46, (3aR,5s,6aS)-2-(1-(4-methyltetrahydro-2H-pyran-4-yl)ethyl)-N-(6-(2,3,5-trifluorophenyl)pyridazin-3-yl)octahydrocyclopenta[c]pyrrol-5-amine], the “Human M4 Emin” value is recorded as 2% and the IC50 came out at 58.9 nM.

As to `[2H]C([2H])([C@@H]1CCOC1)N1C[C@H]2C[C@H](Nc3ccc(-c4cc(F)cc(F)c4F)nn3)C[C@H]2C1` [Compound 44, (3aR,5s,6aS)-2-(((S)-tetrahydrofuran-3-yl)methyl-d2)-N-(6-(2,3,5-trifluorophenyl)pyridazin-3-yl)octahydrocyclopenta[c]pyrrol-5-amine], the “Human M4 Emin” value worked out at 2% and the IC50 came out at 31.3 nM.

Turning to `Fc1cc(F)c(F)c(-c2ccc(N[C@H]3C[C@@H]4CN(CC5(F)CCCCC5)C[C@@H]4C3)nn2)c1` [Compound 87, (3aR,5s,6aS)-2-((1-fluorocyclohexyl)methyl)-N-(6-(2,3,5-trifluorophenyl)pyridazin-3-yl)octahydrocyclopenta[c]pyrrol-5-amine], the “Human M4 Emin” value is recorded as 3% and the IC50 was 41 nM.

As to `Fc1ccc(CN2C[C@H]3C[C@H](Nc4ccc(-c5cc(F)cc(F)c5F)nn4)C[C@H]3C2)c(F)c1` [Compound 91, (3aR,5s,6aS)-2-(2,4-difluorobenzyl)-N-(6-(2,3,5-trifluorophenyl)pyridazin-3-yl)octahydrocyclopenta[c]pyrrol-5-amine], the “Human M4 Emin” value is 4% and the half-inhibitory concentration (IC50) worked out at 360 nM.

As for `OC1(CN2C[C@H]3C[C@H](Nc4ccc(-c5cc(F)cc(F)c5F)nn4)C[C@H]3C2)C2CC3CC(C2)CC1C3` (stereo partly drawn) [Compound 63, 2-(((3aR,5s,6aS)-5-((6-(2,3,5-trifluorophenyl)pyridazin-3-yl)amino)hexahydrocyclopenta[c]pyrrol-2(1H)-yl)methyl)adamantan-2-ol], the “Human M4 Emin” value came to 3% and the 50% inhibitory concentration (IC50) is 78 nM.

As to `Fc1cc(F)c(F)c(-c2ccc(N[C@H]3C[C@@H]4CN(C[C@H]5CC6CCC5O6)C[C@@H]4C3)nn2)c1` (stereo partly drawn) [Compound 31, (3aR,5s,6aS)-2-(((2R)-7-oxabicyclo[2.2.1]heptan-2-yl)methyl)-N-(6-(2,3,5-trifluorophenyl)pyridazin-3-yl)octahydrocyclopenta[c]pyrrol-5-amine], the “Human M4 Emin” value is 3% and the half-inhibitory concentration (IC50) was 1.47 nM.

As to `[2H]C([2H])(CC1COC1)N1C[C@H]2C[C@H](Nc3ccc(-c4cc(F)cc(F)c4F)nn3)C[C@H]2C1` [Compound 85, (3aR,5s,6aS)-2-(2-(oxetan-3-yl)ethyl-1,1-d2)-N-(6-(2,3,5-trifluorophenyl)pyridazin-3-yl)octahydrocyclopenta[c]pyrrol-5-amine], the “Human M4 Emin” value amounted to 4% and the IC50 stood at 66 nM.

Consider `[2H]C([2H])([C@@H]1CC12CCOCC2)N1C[C@H]2C[C@H](Nc3ccc(-c4cc(F)cc(F)c4F)nn3)C[C@H]2C1` [Compound 77, (3aR,5s,6aS)-2-((6-oxaspiro[2.5]octan-1-yl)methyl-d2)-N-(6-(2,3,5-trifluorophenyl)pyridazin-3-yl)octahydrocyclopenta[c]pyrrol-5-amine], for which the “Human M4 Emin” value was 3% and the concentration for half-maximal inhibition (IC50) worked out at 2.1 nM.

With `[2H]C([2H])(N1C[C@H]2C[C@H](Nc3ccc(-c4cc(F)cc(F)c4F)nn3)C[C@H]2C1)C1(CC)CCOCC1` [Compound 33, (3aR,5s,6aS)-2-((4-ethyltetrahydro-2H-pyran-4-yl)methyl-d2)-N-(6-(2,3,5-trifluorophenyl)pyridazin-3-yl)octahydrocyclopenta[c]pyrrol-5-amine], the “Human M4 Emin” value is on record as 3% and the IC50 was 39.6 nM.

Turning to `CC(C)(O)CCN1C[C@H]2C[C@H](Nc3ccc(-c4cc(F)cc(F)c4F)nn3)C[C@H]2C1` [Compound 54, 2-methyl-4-((3aR,5s,6aS)-5-((6-(2,3,5-trifluorophenyl)pyridazin-3-yl)amino)hexahydrocyclopenta[c]pyrrol-2(1H)-yl)butan-2-ol], the “Human M4 Emin” value stood at 5% and the IC50 was determined as 160 nM.
